The text below walks through data of patent publication US20240300948A1, “Heterocyclic Compounds As Kinase Inhibitors” (Incyte Corporation, priority 2023, published 2024).

Each structure is given as a SMILES string. pIC50: −log10 of the molar value. A value given as a limit tells only on which side of the number the result lay.

In test [1] the target is T1, pseudo-kinase domain (JH2, amino-acids 536-812 with 3 surface mutations W659A, W777A, F794H) of human V617F mutant JAK2 (Homo sapiens, UniProt O60674, F794H/V617F/W659A/W777A).
T1 construct: pseudo-kinase domain (JH2, amino-acids 536-812 with 3 surface mutations W659A, W777A, F794H); His (C); Avi (biotinylated) (C); purchased BPS Bioscience 79498; host or cells: baculovirus expression system
Nature of the test: JAK2 LanthaScreen JH2-V617F binding assay. To be noted: 50 nM tracer, 1 hour at 25° C., read-out: JH2 BIND V617F IC50. The method, then:
Example C. JAK2 LanthaScreen JH2-V617F Binding Assay
(§1) JAK2 JH2-V617F binding assay utilizes pseudo-kinase domain (JH2, amino-acids 536-812 with 3 surface mutations W659A, W777A, F794H) of human V617F mutant JAK2 expressed as C-terminal His-Avi-tagged, biotinylated protein in a baculovirus expression system (BPS Bioscience, Catalog #79498). The assay was conducted in black 384-well polystyrene plates in a final reaction volume of 20 μL. JAK2 JH2-V617F (0.26 nM) was incubated with compounds (100 nL serially diluted in DMSO) in the presence of 50 nM Fluorescent JAK2-JH2 Tracer (MedChem Express Catalog #HY-102055) and 0.25 nM Streptavidin-Tb cryptate (Cisbio Part #610SATLB) in assay buffer (50 mM Tris, pH=7.5, 10 mM MgCl2, 0.01% Brij-35, 0.1% BSA, 1 mM EGTA, 5% Glycerol and 5 mM DTT). Non-specific binding was accessed in the presence of 2 mM ATP. After incubation for 1 hour at 25° C., LanthaScreen signals were read on a PHERAstar FS plate reader (BMG LABTECH). Data was analyzed with IDBS XLfit and GraphPad Prism 5.0 software using a four parameter dose response curve to determine IC50 for each compound.
(In general: TR-FRET usually uses a lanthanide donor and a delayed reading to cut background.)

In test [2] the target is T2, pseudo-kinase domain (JH2, amino-acids 536-812 with 3 surface mutations W659A, W777A, F794H) of human Wild Type JAK2 (Homo sapiens, UniProt O60674, F794H/W659A/W777A).
T2 construct: pseudo-kinase domain (JH2, amino-acids 536-812 with 3 surface mutations W659A, W777A, F794H); His (C); Avi (biotinylated) (C); purchased BPS Bioscience 79463; host or cells: baculovirus expression system
Kind of test: JAK2 LanthaScreen JH2-WT binding assay. To be noted: 50 nM tracer, 1 hour at 25° C., read-out: JH2 BIND WT IC50. As to the method: Example B. JAK2 LanthaScreen JH2-WT Binding Assay
as §1, with “JH2-WT” for “JH2-V617F”, “Wild Type” for “V617F mutant”, “#79463).” for “#79498).”, “JH2-WT (0.145” for “JH2-V617F (0.26”

The target in test [3] is T3, catalytic domain (JH1, amino acids 826-1132) of human JAK2 (Homo sapiens, UniProt O60674).
T3 construct: catalytic domain (JH1, amino acids 826-1132) of human JAK2; FLAG (N); purchased Carna Biosciences 08-445-20N; host or cells: baculovirus expression system
Nature of the test: JAK2 LanthaScreen JH1 binding assay. To be noted: 50 nM tracer, 2 hours at 25° C., read-out: JH1 BIND IC50. The method, then:
Example A. JAK2 LanthaScreen […] Binding Assay
JAK2 JH1 binding assay utilizes catalytic domain (JH1, amino acids 826-1132) of human JAK2 expressed as N-terminal FLAG-tagged, biotinylated protein in a baculovirus expression system (Carna Biosciences, Product #08-445-20N). The assay was conducted in black 384-well polystyrene plates in a final reaction volume of 20 μL. JAK2 JH1 (1.5 nM) was incubated with compounds (100 nL serially diluted in DMSO) in the presence of 50 nM fluorescent JAK2-JH1 tracer and 0.5 nM Streptavidin-Tb cryptate (Cisbio Part #610SATLB) in assay buffer (50 mM Tris, pH=7.5, 10 mM MgCl2, 0.01% Brij-35, 0.1% BSA, 1 mM EGTA, 5% Glycerol and 5 mM DTT). Non-specific binding was accessed in the presence of 2 mM ATP. After incubation for 2 hours at 25° C., LanthaScreen signals were read on a PHERAstar FS plate reader (BMG LABTECH). Data was analyzed with IDBS XLfit and GraphPad Prism 5.0 software using a four parameter dose response curve to determine IC50 for each compound.

T3 sequence (O60674 826-1132): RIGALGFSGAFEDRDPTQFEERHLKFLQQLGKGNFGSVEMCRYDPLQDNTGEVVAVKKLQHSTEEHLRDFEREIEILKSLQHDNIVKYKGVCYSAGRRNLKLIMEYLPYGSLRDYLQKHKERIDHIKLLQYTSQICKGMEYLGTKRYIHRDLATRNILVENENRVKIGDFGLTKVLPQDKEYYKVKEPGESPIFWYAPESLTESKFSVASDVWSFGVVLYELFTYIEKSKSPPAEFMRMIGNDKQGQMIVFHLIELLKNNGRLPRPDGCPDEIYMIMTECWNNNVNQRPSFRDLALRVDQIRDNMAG
T2 sequence (O60674 536-812 W659A/W777A/F794H): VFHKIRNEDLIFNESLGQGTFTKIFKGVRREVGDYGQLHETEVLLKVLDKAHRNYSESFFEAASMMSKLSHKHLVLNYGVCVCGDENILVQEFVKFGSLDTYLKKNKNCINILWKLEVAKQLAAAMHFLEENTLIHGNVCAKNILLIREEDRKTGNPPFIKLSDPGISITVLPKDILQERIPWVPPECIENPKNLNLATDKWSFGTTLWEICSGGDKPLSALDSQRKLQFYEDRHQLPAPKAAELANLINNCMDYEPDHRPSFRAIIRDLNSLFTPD
T1 sequence (O60674 536-812 V617F/W659A/W777A/F794H): as the sequence (O60674 536-812 W659A/W777A/F794H) above, with V82F counted along it

Turning to `COC(=O)N1CCC(N2C(=O)NCc3cnc4[nH]c(-c5cnn(C)c5)c(-c5ccc6c(cnn6C(C)C)c5)c4c32)CC1` [Example 14, Methyl 4-(9-(1-isopropyl-1H-indazol-5-yl)-8-(1-methyl-1H-pyrazol-4-yl)-2-oxo-2,3,4,7-tetrahydro-1H-pyrrolo[3′,2′:5,6]pyrido[4,3-d]pyrimidin-1-yl)piperidine-1-carboxylate], the negative-log IC50 (pIC50) in test [1] was 7.00 to 8.00; in test [2], 7.00 to 8.00; in test [3] it was under 6.00.
On to `CC(C)n1ncc2cc(-c3c(-c4cnn(C)c4)[nH]c4ncc5c(c34)N([C@H]3C[C@@H](NC(=O)Cc4ccn(C)n4)C3)C(=O)NC5)ccc21` [Example 21, N-((1s,3s)-3-(9-(1-Isopropyl-1H-indazol-5-yl)-8-(1-methyl-1H-pyrazol-4-yl)-2-oxo-2,3,4,7-tetrahydro-1H-pyrrolo[3′,2′:5,6]pyrido[4,3-d]pyrimidin-1-yl)cyclobutyl)-2-(1-methyl-1H-pyrazol-3-yl)acetamide], for which the pIC50 in test [1] is 7.00 to 8.00; in test [2] it was 7.00 to 8.00; in test [3] it was 6.00 to 6.30.
Consider `COC(=O)N[C@H]1C[C@H](N2C(=O)NCc3cnc4[nH]c(-c5ccc(CN6CCOCC6)cc5)c(-c5ccc6c(cnn6C(C)C)c5)c4c32)C1` [Example 33, Methyl ((1r,3r)-3-(9-(1-isopropyl-1H-indazol-5-yl)-8-(4-(morpholinomethyl)phenyl)-2-oxo-2,3,4,7-tetrahydro-1H-pyrrolo[3′,2′:5,6]pyrido[4,3-d]pyrimidin-1-yl)cyclobutyl)carbamate], for which the pIC50 in test [1] is at least 8.00; in test [2], at least 8.00; in test [3], under 6.00.
Turning to `CC(C)n1ncc2cc(-c3c(-c4cnn(C)c4)[nH]c4ncc5c(c34)N([C@H]3CC[C@@H]3NC(=O)NCC(F)F)C(=O)NC5)ccc21` (racemic) [Example 8, N-(2,2-Difluoroethyl)-3-(trans-2-(9-(1-isopropyl-1H-indazol-5-yl)-8-(1-methyl-1H-pyrazol-4-yl)-2-oxo-2,3,4,7-tetrahydro-1H-pyrrolo[3′,2′:5,6]pyrido[4,3-d]pyrimidin-1-yl)cyclobutyl)urea], the pIC50 in test [1] is 6.30 to 7.00; in test [2], 7.00 to 8.00; in test [3] it was under 6.00.
Consider `COC(=O)N[C@H]1C[C@H](N2C(=O)NCc3cnc4[nH]c(-c5cnn(C)c5)c(-c5ccc6c(cnn6C(C)C)c5)c4c32)C1` [Example 1, Methyl ((1r,3r)-3-(9-(1-isopropyl-1H-indazol-5-yl)-8-(1-methyl-1H-pyrazol-4-yl)-2-oxo-2,3,4,7-tetrahydro-1H-pyrrolo[3′,2′:5,6]pyrido[4,3-d]pyrimidin-1-yl)cyclobutyl)carbamate], for which the pIC50 in test [1] is at least 8.00; in test [2], at least 8.00; in test [3] it was 6.30 to 7.00.
Consider `COC(=O)N[C@@H]1CC[C@@H](N2C(=O)NCc3cnc4[nH]c(-c5cnn(C)c5)c(-c5ccc6c(cnn6C)c5)c4c32)C1` [Example 29, Methyl ((1R,3R)-3-(9-(1-methyl-1H-indazol-5-yl)-8-(1-methyl-1H-pyrazol-4-yl)-2-oxo-2,3,4,7-tetrahydro-1H-pyrrolo[3′,2′:5,6]pyrido[4,3-d]pyrimidin-1-yl)cyclopentyl) carbamate], for which the pIC50 in test [1] was 7.00 to 8.00; in test [2], at least 8.00; in test [3] it was under 6.00.
Take `COC(=O)N[C@@H]1CC[C@@H](N2C(=O)NCc3cnc4[nH]c(-c5cnn(C)c5)c(-c5ccc(OC6CCOC6)cc5)c4c32)C1` (mixture of isomers) [Example 27, Methyl ((1R,3R)-3-(8-(1-methyl-1H-pyrazol-4-yl)-2-oxo-9-(4-((tetrahydrofuran-3-yl)oxy)phenyl)-2,3,4,7-tetrahydro-1H-pyrrolo[3′,2′:5,6]pyrido[4,3-d]pyrimidin-1-yl)cyclopentyl)ca rbamate]: the values for the pIC50 in test [1], in test [2] and in test [3] were 7.00 to 8.00, 7.00 to 8.00 and 6.30 to 7.00, respectively.
For the molecule `COC(=O)N[C@@H]1CC[C@@H](N2C(=O)NCc3cnc4[nH]c(-c5cnn(C)c5)c(-c5ccc6c(cnn6CCF)c5)c4c32)C1` [Example 25, Methyl ((1R,3R)-3-(9-(1-(2-fluoroethyl)-1H-indazol-5-yl)-8-(1-methyl-1H-pyrazol-4-yl)-2-oxo-2,3,4,7-tetrahydro-1H-pyrrolo[3′,2′:5,6]pyrido [4,3-d]pyrimidin-1-yl)cyclopentyl) carbamate], the pIC50 in test [1] is 7.00 to 8.00; in test [2], at least 8.00; in test [3], 6.30 to 7.00.
As to `CC(C)n1ncc2cc(-c3c(-c4cnn(C)c4)[nH]c4ncc5c(c34)N([C@H]3C[C@@H](NC(=O)c4nc(C(F)(F)F)cs4)C3)C(=O)NC5)ccc21` [Example 22, N-((1s,3s)-3-(9-(1-isopropyl-1H-indazol-5-yl)-8-(1-methyl-1H-pyrazol-4-yl)-2-oxo-2,3,4,7-tetrahydro-1H-pyrrolo[3′,2′:5,6]pyrido[4,3-d]pyrimidin-1-yl)cyclobutyl)-4-(trifluoromethyl)thiazole-2-carboxamide], the pIC50 in test [1] was 6.30 to 7.00; in test [2], 6.30 to 7.00; in test [3], under 6.00.
Turning to `COC(=O)N[C@@H]1CC[C@@H](n2c(=O)ncc3cnc4[nH]c(-c5cnn(C)c5)c(-c5ccc6c(cnn6C)c5)c4c32)C1` [Example 37, Methyl ((1R,3R)-3-(9-(1-methyl-1H-indazol-5-yl)-8-(1-methyl-1H-pyrazol-4-yl)-2-oxo-2,7-dihydro-1H-pyrrolo[3′,2′:5,6]pyrido[4,3-d]pyrimidin-1-yl)cyclopentyl)carbamate], the pIC50 in test [1] is 6.30 to 7.00; in test [2], 6.30 to 7.00; in test [3] it was under 6.00.
Regarding `CC(C)n1ncc2cc(-c3c(-c4cnn(C)c4)[nH]c4ncc5c(c34)N(C3CCC4(CC3)CN(S(=O)(=O)C3(C)CC3)C4)C(=O)NC5)ccc21` [Example 20, 9-(1-isopropyl-1H-indazol-5-yl)-8-(1-methyl-1H-pyrazol-4-yl)-1-(2-((1-methylcyclopropyl)sulfonyl)-2-azaspiro[3.5]nonan-7-yl)-1,3,4,7-tetrahydro-2H-pyrrolo [3′,2′:5,6]pyrido[4,3-d]pyrimidin-2-one], the pIC50 was 7.00 to 8.00 in test [1], 7.00 to 8.00 in test [2] and under 6.00 in test [3].
On to `COC(=O)N[C@H]1C[C@H](N2C(=O)NCc3cnc4[nH]c(C5=CCN(C)CC5)c(-c5ccc6c(cnn6C(C)C)c5)c4c32)C1` [Example 34, Methyl ((1r,3r)-3-(9-(1-isopropyl-1H-indazol-5-yl)-8-(1-methyl-1,2,3,6-tetra hydropyridin-4-yl)-2-oxo-2,3,4,7-tetrahydro-1H-pyrrolo[3′,2′:5,6]pyrido[4,3-d]pyrimidin-1-yl)cyclobutyl) carbamate], for which the values for the pIC50 in test [1], in test [2] and in test [3] were 7.00 to 8.00, 7.00 to 8.00 and under 6.00, respectively.

The pIC50 is −log10 of the IC50, conventionally taken in molar units.
